Values after ≈ are worked out from the molar mass of the structure shown. Read-outs that look alike come from different tables or passages of the source.
Columns and labels:
[1] = test system: L. donovani promastigotes; experiment: In vitro growth of L. donovani promastigotes, 3H-thymidine uptake (Example 4); format: cell-based; details: Leishmania donovani; for inhibition at 1 µg/mL: 1 μg/ml; for inhibition at 2 µg/mL: 2 μg/ml; for inhibition at 5 µg/mL: 5 μg/ml; for inhibition at 10 µg/mL: 10 μg/ml; for inhibition at 20 µg/mL: 20 μg/ml
L. major amastigotes = L. major amastigotes in human macrophages, Giemsa counting (Example 6); format: cell-based, Leishmania major
Description: Macrophage culture. The method used in this study was a modification of the one described by Berman et al. (1979). Human peripheral blood monocytes were obtained by Ficoll-Hypaque fractionation of blood from the Blood Bank, Rigshospitalet, Copenhagen, Denmark. Washed cells were suspended in medium RPMI-199 containing penicillin (50 U/ml), and streptomycin (50 μg/ml), 25 mM Hepes, 4 mM L-glutamine, and 10% heat inactivated fetal calf serum (56° C., 30 min). One milliliter of suspension containing 1×10^6 mononuclear cells was added to each well (16 mm in diameter, with one piece of cover glass in 12 mm diameter) of 24 wells of plastic culture trays (Nunc, Denmark). After 4 h and again after 3 days of incubation at 37° C. in 5% CO2-95% air, old medium was removed and washed with warm fresh medium three times, and then replaced with warm fresh medium.
Infection of macrophages with L. major promastigotes. After 6 days incubation the old medium was removed, and one milliliter of 1×10^7 4 days culture of L. major promastigotes (same promastigotes culture as in Example 4) was added to each well. After 24 h infection, macrophage cultures were washed three times with warm fresh medium and replenished with warm fresh medium with different concentrations of licochalcone A or medium alone. The medium was changed every 3 days. After infection, day 3 and day 6 a certain number of macrophage cultures were fixed with absolute methanol, stained with 5% Giemsa stain for 10 min, and examined by light microscopy (×1,000). The percentage of macrophages that contained amastigotes and the number of amastigotes present per infected macrophage were determined in replicate cultures by counting 200 cells per well.

L. major in U937 cells = experiment: Intracellular parasite killing, parasite survival index (PSI); format: cell-based, Leishmania major; details: 1 μg/ml
Description: Killing was quantified by a modification of a technique described by Berman et al.
Briefly, 3 days after infection, microtiter well cultures were rinsed once with medium, exposed to 100 μl of prewarmed (37° C.) 0.01% sodium dodecyl-sulfate (SDS) in medium RPMI 1640, and returned to 34° C. for 15 min. By this procedure, macrophages were lysed, according to microscopic observation, and amastigotes were released. 100 μl of medium RPMI 1640 with 20% HFCS were added to each well without removal of the lysing solution. The plates were then transferred to a 26° C. incubator, and amastigotes were left to transform to promastigotes. After 48 h, parasite growth was recorded by adding 1 μCi of ^3H-thymidine (New England Nuclear Corp., Boston, Mass.) to each well. The parasites were harvested 24 h later on glass fiber filters with a harvesting machine (Skatron, Lierbyen, Norway), and ^3H-thymidine incorporation was measured in a liquid scintillation counter (Tricarb; Packard Instrument Co., Inc., Rockville, Md.). The parasite survival index (PSI) was determined. This index is the mean 3H-thymidine incorporation (cpm) in treated infected cells as compared with the untreated infected cells. [formula]

human PMN = experiment: Zymosan-enhanced chemiluminescence, PMN; format: cell-based; details: read-out: percentage inhibition of chemiluminescence response to opsonized zymosan (mean ± SEM)
Description: Chemiluminescence. Monocytes were prepared from heparinized blood by metrizoate sodium-Ficoll (the same as lymphocyte proliferation). Polymorphonuclear leucocytes (PMN) were prepared from heparinized blood by dextran sedimentation and metrizoate sodium-Ficoll separation. Remaining erythrocytes were removed by hypotonic lysis. A zymosan-enhanced chemiluminescence assay was used. The assay was performed in a total volume of 5.5 ml at ambient temperature in glass scintillation vials. A Beckman L 8000 scintillation counter (placed under air-conditioned, thermostat controlled, 21±1° C. conditions) was used in the out-of-coincidence mode A 1.1 ml portion of PMN or monocyte suspension (1×10^6 cells per ml) was pre-incubated with 1.1 ml of various concentrations of licochalcone A for 30 min at 37° C. in a rotor at 20 rpm Luminol (5-amino-2,3-dihydro-1,4-phatalazinedione) obtained from Sigma Chemical Co., St Louis, Mo., U.S.A., was maintained as a stock solution of 10 mg/ml in NaOH (0.1 N) and diluted in Krebs-Ringer solution immediately before use. Each vial contained 5×10^5 pre-incubated PMN or monocyte, 4 mg of opsonized zymosan (Sigma), 50 μl of luminol solution, and 4.45 ml of Krebs-Ringer solution containing 5 mM glucose. The final concentration of luminol in the assay mixture was 5×10^−8m.

[2] = test system: chloroquine-sensitive P. falciparum 3D7A strain; experiment: In vitro growth of P. falciparum 3D7A, 3H-hypoxanthine uptake (Example 15); format: cell-based, Plasmodium falciparum; details: for Percentage inhibition of 3H-hypoxanthine uptake (mean ± SEM): title: percentage inhibition of 3H-hypoxanthine uptake
M. avium = experiment: Radiometric MIC (Example 19); format: cell-based
[3] = Toxicity study in rats, peroral (Example 21); format: in vivo
Description: Study in rats. To 4 rats was administered one dose of 1000 mg per kg body weight perorally.

[4] = read-out: percentage inhibition of 3H-thymidine uptake (mean ± SEM), 3-day culture
[5] = read-out: percentage inhibition of 3H-thymidine uptake (mean ± SEM), 6-day culture

## C=CC(C)(C)c1cc(/C=C/C(=O)c2ccc(O)cc2)c(OC)cc1O [Licochalcone A, licochalcone A]
[1]; [4]
  inhibition at 1 µg/mL: 15.2 ± 14.5%
  inhibition at 2 µg/mL: 23.5 ± 16.4%
  inhibition at 5 µg/mL: 53.7 ± 14%
  inhibition at 10 µg/mL: 81.5 ± 8%
  inhibition at 20 µg/mL: 96.7 ± 0.8%
[1]; [5]
  inhibition at 1 µg/mL: 30.4 ± 23.8%
  inhibition at 2 µg/mL: 42.2 ± 16.6%
  inhibition at 5 µg/mL: 70.1 ± 12.4%
  inhibition at 10 µg/mL: 91.9 ± 3.1%
  inhibition at 20 µg/mL: 98.3 ± 0.8%
L. major amastigotes; 1 μg/ml, 3-day
  number of amastigotes/100 macrophages: 54
  number of infected macrophages/100 macrophages: 43
L. major amastigotes; 1 μg/ml, 6-day
  number of amastigotes/100 macrophages: 45/45/100
  number of infected macrophages/100 macrophages: 45/45/100
L. major amastigotes; 5 μg/ml, 3-day
  number of amastigotes/100 macrophages: 18
  number of infected macrophages/100 macrophages: 7
L. major amastigotes; 5 μg/ml, 6-day
  number of amastigotes/100 macrophages: 11
  number of infected macrophages/100 macrophages: 5
L. major amastigotes; 10 μg/ml, 3-day
  number of amastigotes/100 macrophages: 10
  number of infected macrophages/100 macrophages: 5
L. major amastigotes; 10 μg/ml, 6-day
  number of amastigotes/100 macrophages: 6
  number of infected macrophages/100 macrophages: 4
L. major in U937 cells
  PSI index: about 5%
Human PMN; 1 μg/ml
  inhibition at 1 µg/mL: 2.1 ± 3.3%
Human PMN; 2 μg/ml
  inhibition at 2 µg/mL: 10.3 ± 3.3%
Human PMN; 5 μg/ml
  inhibition at 5 µg/mL: 18.9 ± 3.7%
Human PMN; 10 μg/ml
  inhibition at 10 µg/mL: 29.7 ± 4.8%
Human PMN; 20 μg/ml
  inhibition at 20 µg/mL: 47 ± 4.3%
[2]; Plasmodium falciparum, read-out: concentration in which growth was retarded by 50%
  IC50: 0.5 to 1 µg/mL (≈ 1.48 to 2.96 µM)
[2]; 0.1 μg/ml
  Percentage inhibition of 3H-hypoxanthine uptake (mean ± SEM): 15.0 ± 3.0%
[2]; 0.5 μg/ml
  Percentage inhibition of 3H-hypoxanthine uptake (mean ± SEM): 39.0 ± 6.0%
[2]; 1 μg/ml
  Percentage inhibition of 3H-hypoxanthine uptake (mean ± SEM): 69.0 ± 4.0%
[2]; 5 μg/ml
  Percentage inhibition of 3H-hypoxanthine uptake (mean ± SEM): 98.0 ± 0.001%
[2]; 10 μg/ml
  Percentage inhibition of 3H-hypoxanthine uptake (mean ± SEM): 98.0 ± 0.0001%
M. avium; AIDS patients, n=4
  meanMIC: > 80 µg/mL
M. avium; Mycobacterium avium, read-out: MIC, all M. avium/intracellular strains
  MIC: ≥ 20 µg/mL
M. avium; non AIDS patients, n=7
  meanMIC: > 80 µg/mL
[3]; 4 rats, one dose of 1000 mg per kg perorally
  deaths within one week: None of the animals died
[3]; rats
  LD50 peroral: > 1000 mg per kg

— patent publication US6603046B1, “Bis-aromatic a,β-unsaturated ketones” (Lica Pharmaceuticals A/S, priority 1992, dated 2003)
